Measured values published in US20260262643A1, “HERBICIDAL BENZOXAZINES” (FMC CORPORATION, priority 2022, published 2026).

Columns and labels:
[1] = tested on: blackgrass; experiment: Test A postemergence; type: in vivo, Alopecurus myosuroides; conditions: Alopecurus myosuroides, post-emergence, 240 h
In short: (§1)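 Seeds in loam–sand blend received a directed preemergence soil spray of compound in non-phytotoxic solvent with surfactant; postemergence plants (2–10 cm, one- to two-leaf stage) were sprayed with the same formulation. After 10 days in greenhouse, injury was rated visually versus untreated controls, 0 (no effect) to 100 (complete control).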

[2] = tested on: wheat; experiment: Test A postemergence; type: in vivo, Triticum aestivum; conditions: Triticum aestivum, post-emergence, 240 h, postemergence, 10 days, 0 to 100 scale (0 no effect, 100 complete control)
In short: as §1

[3] = tested on: oat, wild; experiment: Test A preemergence; type: in vivo, Avena fatua; conditions: Avena fatua, pre-emergence, 240 h, read-out: Plant response rating, Oat, Wild
In short: as §1

[4] = tested on: oat, wild; experiment: Test A postemergence; type: in vivo, Avena fatua; conditions: Avena fatua, post-emergence, 240 h, postemergence, 10 days, 0 to 100 scale (0 no effect, 100 complete control)
In short: as §1

[5] = tested on: ragweed; experiment: Test A preemergence; type: in vivo, Ambrosia artemisiifolia; conditions: Ambrosia artemisiifolia, pre-emergence, 240 h, read-out: Plant response rating, Ragweed
In short: as §1

[6] = tested on: pigweed, palmer; experiment: Test A postemergence; type: in vivo, Amaranthus palmeri; conditions: Amaranthus palmeri, post-emergence, 240 h, postemergence, 10 days, 0 to 100 scale (0 no effect, 100 complete control)
In short: as §1

[7] = tested on: barnyardgrass; experiment: Test B flooded paddy test; type: in vivo, Echinochloa crus-galli; conditions: Echinochloa crus-galli, 312 h, 250 g ai/ha, Flood, 13 days, 0 to 100 scale (0 no effect, 100 complete control); read-out: Plant response rating, Barnyardgrass
In short: (§2)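 Compound is introduced into paddy water covering soil by 3 cm, treating plants that have reached two leaves. Pots are kept flooded at that depth under greenhouse conditions. Assessment at 13 days gives a 0–100 visual control score.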

[8] = tested on: kochia; experiment: Test A postemergence; type: in vivo, Bassia scoparia; conditions: Bassia scoparia, post-emergence, 240 h, postemergence, 10 days, 0 to 100 scale (0 no effect, 100 complete control)
In short: as §1

[9] = tested on: foxtail, giant; experiment: Test A preemergence; type: in vivo, Setaria faberi; conditions: Setaria faberi, pre-emergence, 240 h, read-out: Plant response rating, Foxtail, Giant
In short: as §1

[10] = tested on: corn; experiment: Test A preemergence; type: in vivo, Zea mays; conditions: Zea mays, pre-emergence, 240 h
In short: as §1

[11] = tested on: horseweed; experiment: Test A postemergence; type: in vivo, Erigeron canadensis; conditions: Erigeron canadensis, post-emergence, 240 h, postemergence, 10 days, 0 to 100 scale (0 no effect, 100 complete control)
In short: as §1

[12] = tested on: rice; experiment: Test B flooded paddy test; type: in vivo, Oryza sativa; conditions: Oryza sativa, 312 h; 250 g ai/ha, Flood, 13 days, 0 to 100 scale (0 no effect, 100 complete control); read-out: Plant response rating, Rice
In short: as §2

[13] = tested on: pigweed, palmer; experiment: Test A preemergence; type: in vivo, Amaranthus palmeri; conditions: Amaranthus palmeri, pre-emergence, 240 h, read-out: Plant response rating, Pigweed, Palmer
In short: as §1

[14] = tested on: soybean; experiment: Test A preemergence; type: in vivo, Glycine max; conditions: Glycine max, pre-emergence, 240 h, read-out: Plant response rating, Soybean
In short: as §1

[15] = 125 g ai/ha, visual injury after 10 days, 0 to 100 scale, 0 is no effect, 100 is complete control
[16] = 500 g ai/ha, 0 to 100 scale (0 no effect, 100 complete control), 10 days

## Cc1cccc2c1O[C@@H](C)CN2C(=O)c1cccc(-n2cnc(C3CCCC3)n2)c1 [Compound 80, [3-(3-Cyclopentyl-1H-1,2,4-triazol-1-yl)phenyl][(2S)-2,3-dihydro-2,8-dimethyl-4H-1,4-benzoxazin-4-yl]methanone]
[1]; 125 g ai/ha, postemergence, 10 days, 0 to 100 scale (0 no effect, 100 complete control), read-out: Blackgrass plant response rating
  pest or weed control at 125 g/ha: 0%
[1]; 500 g ai/ha, Postemergence, 0 to 100 scale, read-out: Plant response rating, Blackgrass
  pest or weed control at 500 g/ha: 40%
[2]; 125 g ai/ha, read-out: Wheat plant response rating
  plant injury at 125 g/ha: 10%
[2]; 500 g ai/ha, visual injury, read-out: Plant response rating, Wheat
  plant injury at 500 g/ha: 10%
[3]; [15]
  pest or weed control at 125 g/ha: 0%
[3]; [16]
  pest or weed control at 500 g/ha: 10%
[4]; 125 g ai/ha, read-out: Oat, Wild plant response rating
  pest or weed control at 125 g/ha: 0%
[4]; 500 g ai/ha, visual injury, read-out: Plant response rating, Oat, Wild
  pest or weed control at 500 g/ha: 20%
[5]; [15]
  pest or weed control at 125 g/ha: 0%
[5]; [16]
  pest or weed control at 500 g/ha: 0%
[6]; 125 g ai/ha, read-out: Pigweed, Palmer plant response rating
  pest or weed control at 125 g/ha: 30%
[6]; 500 g ai/ha, visual injury, read-out: Plant response rating, Pigweed, Palmer
  pest or weed control at 500 g/ha: 70%
[7]
  pest or weed control at 250 g/ha: 0%
[8]; 125 g ai/ha, read-out: Kochia plant response rating
  pest or weed control at 125 g/ha: 40%
[8]; 500 g ai/ha, visual injury, read-out: Plant response rating, Kochia
  pest or weed control at 500 g/ha: 70%
[9]; [15]
  pest or weed control at 125 g/ha: 20%
[9]; [16]
  pest or weed control at 500 g/ha: 80%
[10]; [15]
  Corn plant response rating (crop injury, 0 = no effect, 100 = complete kill) at 125 g/ha: 0%
[10]; [16]
  Corn plant response rating (crop injury, 0 = no effect, 100 = complete kill) at 500 g/ha: 20%
[11]; 125 g ai/ha, read-out: Horseweed plant response rating
  pest or weed control at 125 g/ha: 0%
[11]; 500 g ai/ha, visual injury, read-out: Plant response rating, Horseweed
  pest or weed control at 500 g/ha: 0%
[12]
  plant injury at 250 g/ha: 0%
[13]; [15]
  pest or weed control at 125 g/ha: 10%
[13]; [16]
  pest or weed control at 500 g/ha: 80%
[14]; [15]
  plant injury at 125 g/ha: 0%
[14]; [16]
  plant injury at 500 g/ha: 0%
